# According to patent US20050025727A1, “Natural sunlight photostable composition” (priority 2003, published 2005):
# Experiment: Photostability in natural sunlight: residual sunscreen active by HPLC, 2 mg/cm^2 film on microscope slides
# Type: physicochemical
# Conditions: for Residual Octisalate, Residual %: natural sunlight as in Example 1, formula not named (context: Formula 5)
# Procedure: As described above, a sunscreen composition of SPF X is considered to be “photostable” when at least 70%, preferably at least 75%, more preferably at least 80% of each sunscreen active in the composition remains after exposure of the composition to Y SEDS of natural sunlight, where Y is about ½ X. “Photostability” is assessed by (i) assaying the pre-UVR exposure concentration of each sunscreen active present in the sunscreen composition by high-performance liquid chromatography (“HPLC”); (ii) applying a sample of the sunscreen composition at a concentration of 2 mg/cm^2 (a standard concentration used in SPF testing) to a non-coated microscope slide or similar non-reactive surface (e.g., glass or quartz plate); (iii) irradiating the sample in natural sunlight according to a dosing regimen as illustrated in Table 1; (iv) assaying the concentration of each sunscreen active post-UVR exposure. More specifically, after the desired UVR exposure, each slide is removed from sunlight and placed in a sealed Blue Max™ polypropylene conical tube (Becton Dickinson) or similar container, and stored in an area to prevent further exposure to natural sunlight. When an irradiation series is completed, the residual content of each sunscreen active is determined via HPLC, such as the Perkin Elmer Model 200, equipped with a 785 UVN detector, and a C18 column. A detector wavelength of 310 nm and an eluent solution of […] may be used. The sunscreen composition is extracted from the slide with isopropanol or other suitable solvent and sonicated for a minimum of 10 minutes to completely solubilize the sunscreen actives. The solution is then filtered with a 0.45 um GHP13 mm syringe filter. The above analytical procedure may be modified in a manner that would be obvious to the person of ordinary skill in the art. To compare the photostability of Formulas 1 and 2, a uniform 2 mg/cm^2 film of sunscreen product was placed on multiple microscope slides. The slides were exposed to direct sunlight for time intervals corresponding to 1, 2, 4, 8, and 16 SEDs as measured by a Solar Light PMA 2100 detector. (Unless otherwise indicated, all sunlight exposures were in Ormond Beach, Fla.). Slides were removed from the sun after the desired exposure and stored in Blue Max™ polypropylene conical tubes. Upon completion of the test series, samples were dissolved in a suitable solvent, sonicated and then assayed via HPLC. Unless otherwise indicated, all assays were performed by HPLC with oxybenzone, if present, as the internal standard.
smiles,measurement,setting,value
CCCCC(CC)COC(=O)c1ccccc1O (stereo not drawn) [Octisalate],Photostability of octisalate,exposed to natural sunlight as in Example 1,photolabile
same,"Residual Octisalate, Residual %",1 SED,96%
same,"Residual Octisalate, Residual %",2 SEDs,100%
same,"Residual Octisalate, Residual %",4 SEDs,92%
same,"Residual Octisalate, Residual %",8 SEDs,80%
same,"Residual Octisalate, Residual %",16 SEDs,55%
